Like-named read-outs stand apart in the source and are kept apart here.
Tests used:
MDA-MB231 = experiment: SRB antiproliferative assay, MDA-MB231; format: cell-based, human; settings: Homo sapiens, MDA-MB-231, 48 h
Protocol: (§1) Antiproliferative effects were determined by a sulforhodamine B (SRB) based protocol. For a typical screening experiment, 5,000-10,000 cells were inoculated into 100 μl medium per well of a 96-well microtiter plate as described previously. […] Some of the sample wells were fixed with 25 μl of 50% trichloroacetic acid (TCA) as a control of the cell population for each cell line at the time of drug addition (Tz). An aliquot of the frozen stock was thawed and diluted to the desired final maximum test-concentration with complete medium. Two to ten-fold serial dilutions were made to provide a total of seven drug concentrations (and a control [C]). Following addition of drugs, the culture plate was incubated for additional 48 h. Cells were fixed in situ by slowly adding 25 μl of ice-cold 50% (w/v) TCA (final concentration, 10% TCA), and were then incubated for 60 min at 4° C. The supernatant was discarded, and the plate was washed five times with tap water, followed by air-dry. 50 μl of SRB solution at 0.4% (w/v) in 1% acetic acid was added to each well, and the plate was incubated for >30 min at room temperature. Unbound SRB was removed by five washes with tap water, followed by air-drying. […] The relative growth rate (%) was calculated for each of the compound concentrations according to the following formula: (Ti−Tz)/(C−Tz)×100 In the formula, time zero (Tz), control growth (C), and OD for different concentration of tested compounds (Ti). The GI50 for each compound was obtained from a non-linear Sigmoidal dose-response (variable slope) curve which is fitted by GraphPad Prism™ v.4.03 software. Values were calculated for each of these parameters if the level of activity was reached. However, if the effect was not reached or was exceeded, the value for that parameter was expressed as greater or less than the maximum or minimum concentration tested. Flow Cytometry

MDA-MB468 = experiment: SRB antiproliferative assay, MDA-MB468; format: cell-based, human; settings: Homo sapiens, MDA-MB-468, 48 h
Protocol: as §1

MCF7 = experiment: SRB antiproliferative assay, MCF7; format: cell-based, human; settings: Homo sapiens, MCF7; SRB, 48 h; read-out: GI50 MCF7
Protocol: as §1

184B5 = experiment: SRB antiproliferative assay, 184B5 non-cancer breast cells; format: cell-based, human; settings: Homo sapiens, read-out: GI50 184B5
Protocol: as §1

Structure (SMILES)	GI50 (MDA-MB231) [µM]	GI50 (MDA-MB468) [µM]	GI50 (MCF7) [µM]	melting point [°C]	GI50 (184B5; 184B5, SRB, 48 h) [µM]	GI50 (184B5; 184B5, 48 h) [µM]
COC(=O)c1sccc1S(=O)(=O)N1CCN(c2ccnc3cc(C(F)(F)F)ccc23)CC1 [Compound 14, 3-[4-(7-Trifluoromethyl-quinolin-4-yl)-piperazine-1-sulfonyl]-thiophene-2-carboxylic acid methyl ester]	34.7 ± 0.71	23.9 ± 0.64	16 ± 0.24	117 to 119	15.88 ± 0.14	
O=S(=O)(c1ccc(-c2ccccc2)cc1)N1CCN(c2ccnc3cc(C(F)(F)F)ccc23)CC1 [Compound 9, 4-[4-(Biphenyl-4-sulfonyl)-piperazin-1-yl]-7-trifluoromethyl-quinoline]	27.2 ± 0.61	20.5 ± 0.54	14.8 ± 0.19	148 to 150	19.1 ± 0.24	
O=[N+]([O-])c1cccc(S(=O)(=O)N2CCN(c3ccnc4cc(C(F)(F)F)ccc34)CC2)c1 [Compound 6, 4-[4-(3-Nitro-benzenesulfonyl)-piperazin-1-yl]-7-trifluoromethyl-quinoline]	32.2 ± 0.68	18.6 ± 0.57	9.44 ± 0.25	199 to 201	17.7 ± 0.21	
O=[N+]([O-])c1ccc(S(=O)(=O)NCCCNc2ccnc3cc(C(F)(F)F)ccc23)c([N+](=O)[O-])c1 [Compound 25, 2,4-Dinitro-N-[3-(7-trifluoromethyl-quinolin-4-ylamino)-propyl]-benzenesulfonamide]	8.91 ± 0.77	8.46 ± 0.41	5.56 ± 0.34	198 to 200		15.9 ± 0.89
O=S(=O)(c1ccc(Cl)cc1)N1CCN(c2ccnc3cc(C(F)(F)F)ccc23)CC1 [Compound 7, 4-[4-(4-Chloro-benzenesulfonyl)-piperazin-1-yl]-7-trifluoromethyl-quinoline]	41.4 ± 0.83	34.9 ± 0.78	27.36 ± 0.27	144 to 146		
O=[N+]([O-])c1ccc(S(=O)(=O)N2CCN(c3ccnc4cc(C(F)(F)F)ccc34)CC2)c([N+](=O)[O-])c1 [Compound 12, 4-[4-(2,4-Dinitro-benzenesulfonyl)-piperazin-1-yl]-7-trifluoromethyl-quinoline]	24.3 ± 0.63	19.2 ± 0.61	10.8 ± 0.12	178 to 180		37.78 ± 0.35
O=S(=O)(NCCCNc1ccnc2cc(Cl)ccc12)c1ccc(Cl)cc1Cl [Compound 21, 2,4-Dichloro-N-[3-(7-chloro-quinolin-4-ylamino)-propyl]-benzenesulfonamide]	6.76 ± 0.55	3.61 ± 0.12	4.04 ± 0.22	145 to 147	3.55 ± 0.21	
CS(=O)(=O)N1CCN(c2ccnc3cc(C(F)(F)F)ccc23)CC1 [Compound 11, 4-(4-Methanesulfonyl-piperazin-1-yl)-7-trifluoromethyl-quinoline]	44.4 ± 0.85	28.6 ± 0.69	25.6 ± 0.26	116 to 118	93.93 ± 0.89	
CS(=O)(=O)NCCCNc1ccnc2cc(Cl)ccc12 [Compound 15, N-[3-(7-Chloro-quinolin-4-ylamino)-propyl]-methanesulfonamide]	40.9 ± 1.52	28.6 ± 1.03	23.1 ± 0.87		23.3 ± 0.92	
COC(=O)c1sccc1S(=O)(=O)N1CCN(c2ccnc3cc(Cl)ccc23)CC1 [Compound 2, Methyl 3-(4-(7-chloroquinolin-4-yl)piperazin-1-ylsulfonyl)thiophene-2-carboxylate]	40.4 ± 0.82	30.2 ± 0.71	22.37 ± 0.21	117 to 119	15.2 ± 0.18	
CN(C)c1cccc2c(S(=O)(=O)N3CCN(c4ccnc5cc(C(F)(F)F)ccc45)CC3)cccc12 [Compound 13, Dimethyl-{5-[4-(7-trifluoromethyl-quinolin-4-yl)-piperazine-1-sulfonyl]-naphthalen-1-yl}-amine]	22 ± 0.59	19 ± 0.55	12.8 ± 0.21	98 to 100	12 ± 0.15	
CN(C)c1cccc2c(S(=O)(=O)N3CCN(c4ccnc5cc(Cl)ccc45)CC3)cccc12 [Compound 4, 5-(4-(7-Chloroquinolin-4-yl)piperazin-1-ylsulfonyl)-N,N-dimethylnaphthalen-1-amine]	35 ± 0.76	27.5 ± 0.66		145 to 147	28.25 ± 0.26	

The next lines start with results.

GI50 (MDA-MB231) [µM]	GI50 (MDA-MB468) [µM]	GI50 (MCF7) [µM]	melting point [°C]	Structure (SMILES)	GI50 (184B5; 184B5, SRB, 48 h) [µM]	GI50 (184B5; 184B5, 48 h) [µM]
14.2 ± 0.98	9.71 ± 0.33	7.73 ± 0.61	199 to 201	CN(C)c1cccc2c(S(=O)(=O)NCCCNc3ccnc4cc(C(F)(F)F)ccc34)cccc12 [Compound 28, 5-Dimethylamino-naphthalene-1-sulfonic acid [3-(7-trifluoromethyl-quinolin-4-ylamino)-propyl]-amide]	3.73 ± 0.21	
7.48 ± 0.63	4.55 ± 0.25	4.33 ± 0.23	137 to 139	COC(=O)c1sccc1S(=O)(=O)NCCCNc1ccnc2cc(C(F)(F)F)ccc12 [Compound 31, N-(3-(7-Trifluoromethyl-quinolin-4-ylamino)propyl)thiophene-3-sulfonamide-2-carbomethoxy ester]	12.1 ± 0.45	
20.4 ± 1.15	9.21 ± 0.65	8.62 ± 0.38		O=[N+]([O-])c1cccc(S(=O)(=O)NCCCNc2ccnc3cc(Cl)ccc23)c1 [Compound 18, N-(3-(7-Chloroquinolin-4-ylamino)propyl)-3-nitrobenzenesulfonamide]	15.8 ± 0.88	
6.36 ± 0.48	6.21 ± 0.42	6.9 ± 0.45	77 to 79	Cc1ccc(S(=O)(=O)NCCCNc2ccnc3cc(C(F)(F)F)ccc23)cc1 [Compound 24, 4-Methyl-N-[3-(7-trifluoromethyl-quinolin-4-ylamino)-propyl]-benzenesulfonamide]	12.2 ± 0.86	
6.03 ± 0.38	4.19 ± 0.23	3.6 ± 0.27	110 to 112	O=S(=O)(NCCCNc1ccnc2cc(C(F)(F)F)ccc12)c1ccc(-c2ccccc2)cc1 [Compound 29, Biphenyl-4-sulfonic acid [3-(7-trifluoromethyl-quinolin-4-ylamino)-propyl]-amide]	2.82 ± 0.05	
15.8 ± 0.95	9.09 ± 0.57	8.25 ± 0.52	98 to 100	O=[N+]([O-])c1cccc(S(=O)(=O)NCCCNc2ccnc3cc(C(F)(F)F)ccc23)c1 [Compound 26, 3-Nitro-N-[3-(7-trifluoromethyl-quinolin-4-ylamino)-propyl]-benzenesulfonamide]	8.01 ± 0.76	
6.97 ± 0.54	3.94 ± 0.12	5.18 ± 0.29	117 to 119	O=S(=O)(NCCCNc1ccnc2cc(C(F)(F)F)ccc12)c1ccc(Cl)cc1Cl [Compound 30, 2,4-Dichloro-N-[3-(7-trifluoromethyl-quinolin-4-ylamino)-propyl]-benzenesulfonamide]	3.22 ± 0.08	
55.9 ± 1.56	30.4 ± 0.99	25.3 ± 1.23	171 to 173	CS(=O)(=O)NCCCNc1ccnc2cc(C(F)(F)F)ccc12 [Compound 23, N-[3-(7-Trifluoromethyl-quinolin-4-ylamino)-propyl]-methanesulfonamide]	59.5 ± 1.56	
4.63 ± 0.42	4.46 ± 0.37	2.47 ± 0.23	116 to 118	O=S(=O)(NCCCNc1ccnc2cc(Cl)ccc12)c1ccc(-c2ccccc2)cc1 [Compound 20, Biphenyl-4-sulfonic acid [3-(7-chloro-quinolin-4-ylamino)-propyl]-amide]	2.41 ± 0.09	
12.8 ± 0.88	10.3 ± 0.56	5.44 ± 0.34	70 to 72	O=S(=O)(NCCCNc1ccnc2cc(C(F)(F)F)ccc12)c1ccc(Cl)cc1 [Compound 27, 4-Chloro-N-[3-(7-trifluoromethyl-quinolin-4-ylamino)-propyl]-benzenesulfonamide]	7.63 ± 0.43	
6.16 ± 0.51	5.77 ± 0.41	5.25 ± 0.45		Cc1ccc(S(=O)(=O)NCCCNc2ccnc3cc(Cl)ccc23)cc1 [Compound 16, N-[3-(7-Chloro-quinolin-4-ylamino)-propyl]-4-methyl-benzenesulfonamide]	9.56 ± 0.53	
11.8 ± 0.91	8.34 ± 0.73	4.31 ± 0.32		O=S(=O)(NCCCNc1ccnc2cc(Cl)ccc12)c1ccc(Cl)cc1 [Compound 19, 4-Chloro-N-(3-(7-chloroquinolin-4-ylamino)propyl)benzenesulfonamide]	6.36 ± 0.34	
